Test results published in PubChem BioAssay (NCI).
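Five compound concentrations were applied to cells in 96-well plates for 48 hours; endpoints were derived by simple linear interpolation of the resulting dose-response curve. TGI: total growth inhibition.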

How the values were obtained:
Test in all cases: inhibition of tumour cell growth, NCI panel, 48 h
M14 melanoma = system: M14 melanoma
IGROV1 ovarian = system: IGROV1 ovarian
PC-3 prostate = system: PC-3 prostate
SK-OV-3 ovarian = system: SK-OV-3 ovarian
COLO 205 colon = system: COLO 205 colon
SF-295 CNS = system: SF-295 CNS
UO-31 renal = system: UO-31 renal
BT-549 breast = system: BT-549 breast
SR leukemia = system: SR leukemia
HOP-62 NSCLC = system: HOP-62 NSCLC
786-0 renal = system: 786-0 renal
U251 CNS = system: U251 CNS
EKVX NSCLC = system: EKVX NSCLC
A549 NSCLC = system: A549 NSCLC
SF-268 CNS = system: SF-268 CNS
NCI-H23 lung = system: NCI-H23 lung
SK-MEL-2 melanoma = system: SK-MEL-2 melanoma
A498 renal = system: A498 renal
ACHN renal = system: ACHN renal

Compound	TGI (M14 melanoma) [µM]	TGI (IGROV1 ovarian) [µM]	TGI (PC-3 prostate) [µM]	TGI (SK-OV-3 ovarian) [µM]	TGI (COLO 205 colon) [µM]	TGI (SF-295 CNS) [µM]	TGI (UO-31 renal) [µM]	TGI (BT-549 breast) [µM]	TGI (SR leukemia) [µM]	TGI (HOP-62 NSCLC) [µM]	TGI (786-0 renal) [µM]	TGI (U251 CNS) [µM]	TGI (EKVX NSCLC) [µM]	TGI (A549 NSCLC) [µM]	TGI (SF-268 CNS) [µM]	TGI (NCI-H23 lung) [µM]	TGI (SK-MEL-2 melanoma) [µM]	TGI (A498 renal) [µM]	TGI (ACHN renal) [µM]
SC[C@@H]1COC[C@H](CS)S1	> 100	> 100	> 100	> 100	> 100	> 100	> 100	> 100	> 100	> 100	> 100	> 100	> 100	> 100	> 100	> 100	–	–	–
NC(=O)Cc1ncn(-c2ccccc2)n1	> 100	> 100	–	> 100	> 100	> 100	> 100	> 100	> 100	> 100	> 100	–	> 100	> 100	> 100	> 100	> 100	> 100	> 100
CCN(CC)CCCC(C)NC(=O)c1cc(-c2nccn2C)nc2ccc(C)cc12 (stereo unspecified)	> 100	> 100	> 100	–	> 100	–	> 100	> 100	–	> 100	> 100	> 100	> 100	> 100	> 100	> 100	> 100	> 100	> 100
COc1cc(C2SCC(=O)N2c2ccc(-c3ccc(-n4c(-c5ccccc5)nc5ccccc5c4=O)cc3)cc2)ccc1O (stereo unspecified)	> 100	> 100	> 100	> 100	> 100	> 100	> 100	> 100	–	> 100	> 100	> 100	> 100	> 100	> 100	> 100	> 100	> 100	> 100
COc1ccc(C2=NN(C(=O)c3ccccc3)C(O)(c3cc(F)c(Cl)cc3Cl)C2)cc1OC (stereo unspecified)	> 100	> 100	> 100	48.8	> 100	> 100	89.4	> 100	–	43	> 100	> 100	> 100	> 100	> 100	> 100	91.7	> 100	> 100
NCCCCC(N)C(=O)N1CCN(c2nc(N3CCCC3)c3nc(Cl)c(NCc4ccccc4)nc3n2)CC1 (stereo unspecified)	33.9	33.9	32.1	37.4	33.1	35.4	32.9	34.4	44.9	29.3	33.1	36.5	36	37.3	45.2	37.9	35.9	–	38.1
CC1CC(=O)N2CCCNC2=C1C#N (stereo unspecified)	> 100	> 100	> 100	> 100	> 100	> 100	> 100	> 100	> 100	> 100	> 100	> 100	> 100	> 100	> 100	> 100	> 100	–	–
Cc1c(C)c(S(=O)(=O)N(CCCCCN)OCCCN)c(C)c2c1OC(C)(C)CC2	> 100	11	18	32	> 74.8	45.8	41.1	29.8	–	25.1	29	> 36.9	25.3	> 100	28.5	33	11.2	40.9	39
C=C[C@@]1(C)CC2CC[C@]3(C)C(C)=CC(=O)CC3[C@]2(C)CC1O (stereo partly specified)	> 100	> 100	> 100	> 100	> 100	> 100	> 100	–	> 100	> 100	> 100	> 100	> 100	> 100	> 100	> 100	> 100	> 100	> 100
CC1(C)CC(=O)C(CC(C(=O)C(=O)Nc2cc(C(F)(F)F)ccc2Cl)C(=O)c2ccco2)C(=O)C1 (stereo unspecified)	> 100	> 100	> 100	> 100	> 100	> 100	> 100	> 100	–	–	> 100	> 100	> 100	> 100	> 100	> 100	> 100	> 100	> 100
O=C1NCC2(CCN(Cc3ccccc3)CC2)N1	> 100	> 100	> 100	> 100	> 100	> 100	> 100	> 100	> 100	> 100	> 100	> 100	> 100	> 100	> 100	> 100	> 100	–	> 100
Cc1ccc(-c2c(C#N)c(-c3ccc([N+](=O)[O-])cc3)c(C#N)c(=O)n2NS(=O)(=O)c2ccc(C)cc2)cc1	> 100	> 100	> 100	> 100	> 100	> 100	–	> 100	–	> 100	> 100	> 100	> 100	> 100	> 100	–	> 100	> 100	> 100
O=C(O)Cn1nnc2c(=O)[nH][nH]c(=O)c21	> 100	–	–	–	> 100	> 100	> 100	> 100	> 100	> 100	> 100	> 100	> 100	> 100	–	> 100	> 100	–	> 100
